From patent publication US6159940A, “Method for modulating hemopoiesis” (Immunotech Developments Inc., priority 1999, dated 2000)

Experiments:
[1] = Solubility; assay type: physicochemical
Text: The peptide prepared using this process is a yellowish grey or white powder, soluble in water, substantially insoluble in alcohol and substantially insoluble in chloroform. It has a UV spectrum in the range of 250-300 nm with a maximum at 280±2 nm.

[2] = tested on: lymphocytes in guinea pigs; assay: E-rosette formation test after trypsin treatment; assay type: cell-based
Text: The biological action of the novel peptide was studied in guinea pigs in the conventional E-rosette formation test.

[3] = tested on: karyocytes in spleen and thymus; assay: Nucleated cell counts in thymus and spleen per mg of organ weight, radiation immunodeficiency; assay type: in vivo, (CBA×C57BL)F1 mice; details: 2 Gy
Description: Females and male (CBA×C57BL)F1 mice, aged about 2.5 months weighing about 20 g, were irradiated with gamma-rays using a "Luch-1" apparatus. Immunological activity was assessed according to Jerne (Antibody Forming Cells count--AFC). T-cell count in spleen was determined by the method of spontaneous rosette formation with sheep erythrocytes (E-FRC). The peptide was injected intramuscularly.
Mice were irradiated in a dose of 2 Gy, the peptide was injected in the dose of 10 μg/kg according to the following scheme (to determine T-cell count by the method of spontaneous rosette formation): 1 time--an hour after the irradiation; 2 times--an hour, and a day after irradiation; 3 times--an hour, a day, and two days after the irradiation; 4 times--an hour, a day, two days and three days after the irradiation. The intact mice recieved the peptide 3 or 4 times. The control group (2 Gy) recieved injections of physiological solution according to the same schedule. On completion of the treatment course, 10 mice from each group were immunized with sheep erythrocytes (SE) and 4-5 days later AFC counts were determined in their spleens. The rest of the mice were used to find T-cell count by the method of spontaneous rosette formation. The state of the organs of immune system (spleen and thymus) in mice with radiation immunodeficiency against the background of H-Ile-Glu-Trp-OH treatment was also listed by nucleated cell counts in thymus and spleen per mg of organ weight. AFC/mg Spleen weight is presented as an average of two experiments.

[4] = tested on: hemoglobin, erythrocytes; assay: Erythropoiesis in irradiated mice (4 Gy); assay type: in vivo; details: for Hemoglobin Content in blood: 4 Gy
Text: The effect of the peptide on erythropoiesis in irradiated mice (4 Gy) was also studied. The mice were irradiated and treated with the peptide as in Example 7.

[5] = tested on: mixed lymphocyte culture (H-2d anti H-2b); assay: Proliferation of mixed lymphocyte culture (MLC), 3H-thymidine; assay type: cell-based
Description: This experimental system is an in vitro the analog of the Graft Versus Host Disease reaction.
In the present series of experiments the reaction H-2d, anti H-2b was examined. The new combination responder-stimulator. Each variant was made in a triplet. Microcultures were incubated for 4 days, then 3H-thymidine was added; then the mixture was incubated for 16 more hours, and after its transfer to the filters, the amount of 3H-thymidine was determined. H-Ile-Glu-Trp-OH was added at the beginning of the incubation in different concentrations.

[6] = Acute toxicity in mice; assay type: in vivo
Description: An acute toxicity study of the peptide was carried out in compliance with methodical recommendations of the Pharmacological Committee of the Russian Federation (RF), "Requirements to Preclinical Study of General Toxic Action of New Pharmacological Substances", M., 1985.
To establish the safety of use of the peptides, toxicity tests were performed. Toxicity tests where performed in accordance Pharmacological Committee Russian Federation (RF) "guidelines for the pre-clinical study of general toxic activity of new pharmacological compounds". M., 1985.
Acute toxicity was studied in 120 mice (60 males, 60 females). Ld50 was not reached with the dose 10000 times as high as the therapeutic one. The preferred therapeutic dose is 0.001-0.1 mg/kg.

[7] = Chronic toxicity, general state and pathomorphologic investigation; assay type: in vivo
Text: The general state of the animals, behaviour, motor function, cardio-vascular, respiratory activity, liver and kidney functions were within the range of physiologic fluctuations.

[8] = Effect on cardio-vascular and respiratory systems, guinea pigs; assay type: in vivo
Description: The effects of H-Ile-Glu-Trp-OH on ECG and arterial pressure were studied in guinea pigs and cats.
The test was conducted in 20 guinea pigs.

[9] = Effect on kidney function (anti-diuretic activity); parameters: species or system white mice; details: mouse, in vivo
Text: The anti-diuretic activity of H-Ile-Glu-Trp-OH was studied in 40 white mice.

[10] = Local irritating effect, guinea pigs; assay type: in vivo
Text: (§1) The local irritating effect of H-Ile-Glu-Trp-OH was studied in 20 guinea pigs and 5 rabbits.

[11] = Local irritating effect, rabbits; assay type: in vivo
Text: as §1

[12] = Allergenicity study; assay type: in vivo, rabbits; details: subcutaneous 0.01% solution for 5 days
Description: The study was performed in 12 rabbits, who received subcutaneous injections of 0.01% H-Ile-Glu-Trp-OH solution for 5 days. The control animals were injected with horse serum.

[13] = Observation during study of specific and general pharmacological activity; assay type: in vivo, mice, guinea pigs, rats, rabbits; details: during the study and 1-6 month observation period
Description: In the study of specific and general pharmacological activity, the test animals were mice, guinea pigs, rats, rabbits. Some tests were performed using lymphocyte or monocyte cultures of the peritheric blood of donors and patients with different diseases accompanied by immunity disorders.

H-Ile-Glu-Trp-OH
Solubility ([1]; alcohol): moderately soluble
Solubility ([1]; chloroform): insoluble
Solubility ([1]; water): readily soluble
in vitro activity relative to other known compounds [2]: 10^3 times
E-rosette formation after treatment with trypsin and compound ([2]; 10^-6 mg/ml): 61.4
E-rosette formation after treatment with trypsin and compound ([2]; 10^-7 mg/ml): 63.9
E-rosette formation after treatment with trypsin and compound ([2]; 10^-8 mg/ml): 64.8
E-rosette formation after treatment with trypsin and compound ([2]; 10^-9 mg/ml): 60.2
E-rosette formation after treatment with trypsin and compound ([2]; 10^-10 mg/ml): 37.5
E-rosette formation after treatment with trypsin and compound ([2]; 10^-11 mg/ml): 40.0
E-rosette formation after treatment with trypsin and compound ([2]; 10^-12 mg/ml): 34.3
Karyocyte Count, Spleen ([3]; 1 Injection): 1120 ± 73 10^3 /mg
Karyocyte Count, Thymus ([3]; 1 Injection): 1860 ± 200 10^3 /mg
Karyocyte Count, Spleen ([3]; 2 Injection): 890 ± 80 10^3 /mg
Karyocyte Count, Thymus ([3]; 2 Injection): 1840 ± 380 10^3 /mg
Karyocyte Count, Spleen ([3]; 3 Injection): 980 ± 80 10^3 /mg
Karyocyte Count, Thymus ([3]; 3 Injection): 2590 ± 400 10^3 /mg
Karyocyte Count, Spleen ([3]; 4 Injection): 1160 ± 100 10^3 /mg
Karyocyte Count, Thymus ([3]; 4 Injection): 2480 ± 280 10^3 /mg
Erythrocyte counts, test versus control groups ([4]; 4 Gy mice): did not differ
restoration of hemoglobin level ([4]; 4 Gy treated mice (control: by day 14)): become normal by the 11th day
Hemoglobin Content in blood ([4]; scheme 2, 1 Time, Day 7): 9.4 ± 0.8 r/dl
Hemoglobin Content in blood ([4]; scheme 2, 1 Time, Day 11): 12.6 ± 0.1 r/dl
Hemoglobin Content in blood ([4]; scheme 2, 1 Time, Day 14): 11.8 ± 0.5 r/dl
Hemoglobin Content in blood ([4]; scheme 2, 1 Time, Day 18): 12.1 ± 0.1 r/dl
Hemoglobin Content in blood ([4]; scheme 2, 1 Time, Day 21): 12.1 ± 0.4 r/dl
Hemoglobin Content in blood ([4]; scheme 2, 2 Times, Day 7): 9.6 ± 0.4 r/dl
Hemoglobin Content in blood ([4]; scheme 2, 2 Times, Day 11): 12.0 ± 0.1 r/dl
Hemoglobin Content in blood ([4]; scheme 2, 2 Times, Day 14): 10.8 ± 0.8 r/dl
Hemoglobin Content in blood ([4]; scheme 2, 2 Times, Day 18): 11.5 ± 0.6 r/dl
Hemoglobin Content in blood ([4]; scheme 2, 2 Times, Day 21): 11.7 ± 0.6 r/dl
Hemoglobin Content in blood ([4]; scheme 2, 3 Times, Day 7): 10.15 ± 0.8 r/dl
Hemoglobin Content in blood ([4]; scheme 2, 3 Times, Day 11): 11.9 ± 0.4 r/dl
Hemoglobin Content in blood ([4]; scheme 2, 3 Times, Day 14): 12.1 ± 0.2 r/dl
Hemoglobin Content in blood ([4]; scheme 2, 3 Times, Day 18): 11.7 ± 0.2 r/dl
Hemoglobin Content in blood ([4]; scheme 2, 3 Times, Day 21): 11.9 ± 0.3 r/dl
Hemoglobin Content in blood ([4]; scheme 2, 4 Times, Day 7): 14.4 ± 0.9 r/dl
Hemoglobin Content in blood ([4]; scheme 2, 4 Times, Day 11): 12.2 ± 0.1 r/dl
Hemoglobin Content in blood ([4]; scheme 2, 4 Times, Day 14): 12.0 ± 0.2 r/dl
Hemoglobin Content in blood ([4]; scheme 2, 4 Times, Day 18): 11.7 ± 0.4 r/dl
Hemoglobin Content in blood ([4]; scheme 2, 4 Times, Day 21): 12.0 ± 0.6 r/dl
proliferation of the allogenic lymphocytes ([5]; 0.1 μg/ml (FIG. 4)): negligible inhibition of the proliferation
proliferation of the allogenic lymphocytes ([5]; 1, 10, and 20 μg/ml (FIG. 4)): stimulation of proliferation
Ld50 ([6]; 120 mice): > 10000 times as high as the therapeutic one
acute toxic effect ([6]; intraperitoneal injection of a 10,000-fold dose): did not cause an acute toxic effect
pathomorphologic investigation (with histologic investigation of organs) ([7]; chronic toxicity): failed to find any pathologic processes
side effects ([7]; doses 10-100 times as large as the therapeutic ones): no side effects were observed
ECG readings and arterial pressure [8]: No significant difference from control
anti-diuretic activity [9]: not to have any anti-diuretic activity
local irritating effect [10]: no local irritating effect
local irritating effect [11]: no local irritating effect
reaction on the injection sites [12]: No macroscopic reaction
toxic or allergic reactions [13]: no toxic or allergic reactions were observed
